The subject of this experiment is A375 melanoma cells. The experiment is described as follows: FITC Annexin V/PI flow cytometry, A375. Format: cell-based, human. Particulars: A375, 24 h. As to the method:
The FITC Annexin V apoptosis detection kit I (BD Pharmigen™, BD Biosciences, San Jose, CA, USA) was used for the detection of apoptosis using flow cytometry. FITC Annexin V emits green fluorescence which indicates apoptosis, whereas propidium iodide (PI) emits red fluorescence and stains dead cells ([Vermes et al., 1995]). The assay was performed according to the manufacturer’s instructions with minor alterations. In brief, cells were seeded in a 96-well plate and grown to ~90% confluence. The cells were exposed to amounts of the prenylated piperazine derivatives and combinations with elesclomol-Cu(II) 1-Cu corresponding to the IC50 values. […] After incubation, 100 µl 1X binding buffer was added to each tube and then analyzed using the BD FACSVerse™ and BD FACSuite™ Software. […] At least 10,000 cellular events were analyzed for each sample. A logarithmic amplification scale was employed and events plotted on forward scatter (FSC), side scatter (SSC), green fluorescence (FL1) and red fluorescence (FL2). […]
Flow cytometry was employed to establish if the observed decrease in cell viability in melanoma cells was of necrotic or apoptotic origin. Cultured melanoma and keratinocyte cells were exposed to predetermined IC50 concentrations of the prenylated piperazine-DHA derivatives and analyzed using the FITC Annexin V/PI flow cytometry assay. […]
Figure 8 Apoptosis measured by FITC Annexin V/PI assay. […]
For orientation: A flow cytometer gives signals particle by particle.

SMILES strings stand for the structures.

`CC(C)=CCC/C(C)=C/CC/C(C)=C/CN1CCN([C@@H]2O[C@@H]3O[C@@]4(C)CC[C@H]5[C@H](C)CC[C@@H]([C@H]2C)[C@@]35OO4)CC1` [Farnesylpiperazine-DHA 7, farnesylpiperazine-DHA]: for the setting “IC50 concentrations (6 45 µM, 7 30 µM, 1-Cu 2 nM; combinations 1:1)”, the Cells undergoing apoptosis amounted to 30.5 ± 3.7%.

Consider `CC(C)=CCC/C(C)=C/CN1CCN([C@@H]2O[C@@H]3O[C@@]4(C)CC[C@H]5[C@H](C)CC[C@@H]([C@H]2C)[C@@]35OO4)CC1` [Geranylpiperazine-DHA 6, geranylpiperazine-DHA], for which, under “45 µM”, the “Late apoptosis/necrosis (FITC-Annexin V positive and PI positive)” value stood at 37.7 ± 2.1%.

The values are drawn from article PMC7552967, “Anti-Melanoma Activities of Artemisone and Prenylated Amino-Artemisinins in Combination With Known Anticancer Drugs” (Frontiers in Pharmacology, 2020).
